# Reference: patent publication US20230113037A1 (Bayer Aktiengesellschaft, priority 2019, published 2023)
# pIC50: −log10 of the molar value. Like-named read-outs stand apart in the source and are kept apart here.
# Assays:
# AHR [1] = biological target: T1, AHR (Homo sapiens, UniProt P35869); assay: In vitro assay 1: antagonism in human cell line (AHR transactivation, firefly luciferase reporter, kynurenic acid prestimulated); format: cell-based; details: for IC50: AHR Antagonism Human IC50 [M]
# T1 construct: U87 MG glioblastoma cells (ATCC #HTB-14) endogenously expressing AHR; endogenous in cells; host or cells: U87 MG glioblastoma cells (ATCC #HTB-14)
# T1 sequence (P35869 11-848): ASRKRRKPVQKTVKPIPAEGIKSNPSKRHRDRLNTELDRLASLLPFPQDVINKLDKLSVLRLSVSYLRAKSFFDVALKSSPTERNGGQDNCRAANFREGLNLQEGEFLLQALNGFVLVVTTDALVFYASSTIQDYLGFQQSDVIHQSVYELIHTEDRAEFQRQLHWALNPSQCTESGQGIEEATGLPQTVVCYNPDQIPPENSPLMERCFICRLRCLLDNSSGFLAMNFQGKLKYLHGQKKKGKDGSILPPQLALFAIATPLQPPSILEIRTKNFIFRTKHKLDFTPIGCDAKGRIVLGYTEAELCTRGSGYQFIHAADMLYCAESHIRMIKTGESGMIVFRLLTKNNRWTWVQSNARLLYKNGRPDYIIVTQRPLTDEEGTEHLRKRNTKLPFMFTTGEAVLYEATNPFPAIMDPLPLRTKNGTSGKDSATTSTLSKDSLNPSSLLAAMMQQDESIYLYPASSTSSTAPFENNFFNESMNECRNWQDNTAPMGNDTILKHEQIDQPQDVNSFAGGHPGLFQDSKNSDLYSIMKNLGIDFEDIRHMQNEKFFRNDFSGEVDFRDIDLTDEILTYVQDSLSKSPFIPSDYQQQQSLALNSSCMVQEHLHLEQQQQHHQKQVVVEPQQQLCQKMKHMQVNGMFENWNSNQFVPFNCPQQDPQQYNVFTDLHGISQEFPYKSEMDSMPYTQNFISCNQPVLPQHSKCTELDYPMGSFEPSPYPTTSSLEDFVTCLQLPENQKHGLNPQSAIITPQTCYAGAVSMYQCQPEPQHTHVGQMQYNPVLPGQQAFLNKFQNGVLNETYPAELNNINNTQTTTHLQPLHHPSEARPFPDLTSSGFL
# Summary of the method: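 Antagonism is measured against kynurenic acid prestimulation in U87 MG glioblastoma cells carrying stable DRE-luciferase and Renilla reporters. Positive inhibition control: 150 μM kynurenic acid with 5 μM staurosporine. Values are normalized to controls; repeats are averaged or given as medians.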
# AHR [2] = biological target: T2, AHR (Mus musculus, UniProt P30561); assay: In vitro assay 3: antagonism in mouse cell line (AHR transactivation, firefly luciferase reporter, kynurenic acid prestimulated); format: cell-based
# T2 sequence (P30561 1-848 P471L/N533S/M589L): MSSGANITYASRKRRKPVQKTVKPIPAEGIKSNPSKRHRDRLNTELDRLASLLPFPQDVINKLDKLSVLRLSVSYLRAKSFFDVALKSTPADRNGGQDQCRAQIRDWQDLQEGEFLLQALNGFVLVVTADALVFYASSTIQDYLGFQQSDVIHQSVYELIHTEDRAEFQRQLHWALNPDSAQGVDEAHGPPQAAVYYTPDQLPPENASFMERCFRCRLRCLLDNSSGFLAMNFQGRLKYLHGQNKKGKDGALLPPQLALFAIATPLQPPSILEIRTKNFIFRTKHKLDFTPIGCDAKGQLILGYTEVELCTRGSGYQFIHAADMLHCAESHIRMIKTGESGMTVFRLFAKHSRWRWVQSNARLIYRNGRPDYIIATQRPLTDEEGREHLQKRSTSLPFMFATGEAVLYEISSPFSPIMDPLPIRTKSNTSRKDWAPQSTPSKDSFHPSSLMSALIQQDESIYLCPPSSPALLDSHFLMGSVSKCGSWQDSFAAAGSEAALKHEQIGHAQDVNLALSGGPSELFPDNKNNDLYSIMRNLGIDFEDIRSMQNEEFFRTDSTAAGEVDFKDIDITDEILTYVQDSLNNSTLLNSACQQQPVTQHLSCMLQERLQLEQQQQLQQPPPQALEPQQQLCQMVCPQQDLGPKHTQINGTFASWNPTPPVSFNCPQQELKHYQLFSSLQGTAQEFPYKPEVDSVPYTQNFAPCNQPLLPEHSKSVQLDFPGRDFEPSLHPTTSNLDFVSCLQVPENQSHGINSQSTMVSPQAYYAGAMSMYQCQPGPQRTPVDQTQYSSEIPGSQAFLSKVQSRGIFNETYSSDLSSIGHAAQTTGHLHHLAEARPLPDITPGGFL
# Summary of the method: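 Kynurenic acid-prestimulated mouse reporter cells; stable AHR-inducible firefly luc construct with DRE sites in promoter. No-agonist wells = positive inhibition ctrl. Luminescence normalized to pos/neg ctrls; n>1 reported as mean or median.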
# [3] = Hepa 1c1c7 cells, 200 μM kynurenic acid, 20 hours, firefly luciferase reporter, read-out: AHR Antagonism Mouse IC50
# [4] = mouse Hepa 1c1c7 cells, 200 μM kynurenic acid, 20 hours, read-out: AHR Antagonism Mouse IC50
Compound,IC50 (AHR [1]; firefly luciferase reporter) [M],IC50 (AHR [1]) [M],pIC50 (AHR [2]; [4]),other results
"CC[C@@H](Nc1nc2c(C(F)(F)F)cccc2c2nc(-c3ccnn3C)nn12)C(N)=O [Example 806, (2R)-2-{[2-(1-methyl-1H-pyrazol-5-yl)-7-(trifluoromethyl)[1,2,4]triazolo[1,5-c]quinazolin-5-yl]amino}butanamide]",3.49e-09,–,–,pIC50 (AHR [2]; [3]): 8.94
"O=C1NCCCCCC1Nc1nc2ccccc2c2nc(-c3ccccc3OC(F)F)nn12 (centres unmarked) [Example 474, 3-({2-[2-(difluoromethoxy)phenyl][1,2,4]triazolo[1,5-c]quinazolin-5-yl}amino)azocan-2-one]",–,3.11e-09,8.86,–
"O=C1NCCCC[C@H]1Nc1nc2ccccc2c2nc(-c3cncc(C(F)(F)F)c3)nn12 [Example 362, (3R)-3-({2-[5-(trifluoromethyl)pyridin-3-yl][1,2,4]triazolo[1,5-c]quinazolin-5-yl}amino)azepan-2-one]",–,1.91e-08,8.45,–
"COc1ccc(-c2nc3c4cccc(Br)c4nc(N[C@H](C)C(=O)NCCCN(C)C)n3n2)cc1 [Example 809, N^2-[7-bromo-2-(4-methoxyphenyl)[1,2,4]triazolo[1,5-c]quinazolin-5-yl]-N-[3-(dimethylamino)propyl]-D-alaninamide]",1.82e-08,–,–,pIC50 (AHR [2]; [3]): 8.04
"COc1ccc(-c2nc3c4cccc(Br)c4nc(N[C@H](C)C(=O)N4CCOC[C@H]4C)n3n2)cc1 [Example 911, (2R)-2-{[7-bromo-2-(4-methoxyphenyl)[1,2,4]triazolo[1,5-c]quinazolin-5-yl]amino}-1-[(3R)-3-methylmorpholin-4-yl]propan-1-one]",1.57e-09,–,–,"pIC50 (AHR [2]; read-out: AHR Antagonism Mouse IC50, Hepa 1c1c7 cells, 200 μM kynurenic acid, 20 hours, firefly luciferase reporter): 8.70"
"COc1cccc(-c2nc3c4ccccc4nc(N[C@H](C)C(=O)NC4CC4)n3n2)c1 [Example 106, N-cyclopropyl-N^2-[2-(3-methoxyphenyl)[1,2,4]triazolo[1,5-c]quinazolin-5-yl]-D-alaninamide]",–,7.97e-09,8.31,–
"CC[C@@H](Nc1nc2ccccc2c2nc(-c3ccccc3)nn12)C(N)=O [Example 4, (2R)-2-[(2-phenyl[1,2,4]triazolo[1,5-c]quinazolin-5-yl)amino]butanamide]",–,1.68e-09,9.04,–
"CS(=O)(=O)c1ccccc1-c1nc2c3ccccc3nc(N[C@@H]3CCCCNC3=O)n2n1 [Example 649, (3R)-3-({2-[2-(methanesulfonyl)phenyl][1,2,4]triazolo[1,5-c]quinazolin-5-yl}amino)azepan-2-one]",–,3.8e-07,7.56,–
"O=C1NCCCC[C@H]1Nc1nc2ccccc2c2nc(-c3ccc(F)c(Cl)c3)nn12 [Example 625, (3R)-3-{[2-(3-chloro-4-fluorophenyl)[1,2,4]triazolo[1,5-c]quinazolin-5-yl]amino}azepan-2-one]",–,1.5e-09,–,"pIC50 (AHR [2]; read-out: AHR Antagonism Mouse IC50, mouse Hepa 1c1c7 cells, 200 μM kynurenic acid, 20 hours): < 5.70"

# Further lines, with some results ahead:
IC50 (AHR [1]; firefly luciferase reporter) [M],IC50 (AHR [1]) [M],pIC50 (AHR [2]; [4]),Compound,other results
9.98e-10,–,–,"O=C1NCCCC[C@H]1Nc1nc2c(Br)cccc2c2nc(-c3cnn(C4CCC4)c3)nn12 [Example 824, (3R)-3-{[7-bromo-2-(1-cyclobutyl-1H-pyrazol-4-yl)[1,2,4]triazolo[1,5-c]quinazolin-5-yl]amino}azepan-2-one]",pIC50 (AHR [2]; [3]): 9.07
–,1.02e-09,9.02,"Nc1cccc(-c2nc3c4ccccc4nc(N[C@@H]4CCCCNC4=O)n3n2)c1 [Example 621, (3R)-3-{[2-(3-aminophenyl)[1,2,4]triazolo[1,5-c]quinazolin-5-yl]amino}azepan-2-one]",–
1.3e-07,–,–,"CC(C)n1cc(-c2nc3c4cccc(C#N)c4nc(N[C@@H]4CNCCNC4=O)n3n2)cn1 [Example 931, 5-{[(6R)-5-oxo-1,4-diazepan-6-yl]amino}-2-[1-(propan-2-yl)-1H-pyrazol-4-yl][1,2,4]triazolo[1,5-c]quinazoline-7-carbonitrile]",pIC50 (AHR [2]; [3]): 6.53
5.21e-06,–,–,"Cn1cc(-c2nc3c4cccc(C#N)c4nc(N[C@@H]4CNCCNC4=O)n3n2)cn1 [Example 930, 2-(1-methyl-1H-pyrazol-4-yl)-5-{[(6R)-5-oxo-1,4-diazepan-6-yl]amino}[1,2,4]triazolo[1,5-c]quinazoline-7-carbonitrile]",pIC50 (AHR [2]; [3]): 4.85
–,3.5e-08,6.20,Cc1cscc1-c1nc2c3ccccc3nc(N[C@@H]3CCNC3=O)n2n1 [Example 541],–
–,1.59e-09,8.98,"Cc1nn(C)cc1-c1nc2c3ccccc3nc(N[C@@H]3CCCCNC3=O)n2n1 [Example 605, (3R)-3-{[2-(1,3-dimethyl-1H-pyrazol-4-yl)[1,2,4]triazolo[1,5-c]quinazolin-5-yl]amino}azepan-2-one]",–
4.19e-09,–,–,CC(C)n1cc(-c2nc3c4cccc(F)c4nc(N[C@@H]4CCCCNC4=O)n3n2)cn1 [Example 836],pIC50 (AHR [2]; [3]): 8.31
–,1.02e-08,6.98,"CSc1cccc2c1nc(N[C@@H]1CCCCNC1=O)n1nc(-c3cnn(C(C)C)c3)nc21 [Example 771, (3R)-3-({7-(methylsulfanyl)-2-[1-(propan-2-yl)-1H-pyrazol-4-yl][1,2,4]triazolo[1,5-c]quinazolin-5-yl}amino)azepan-2-one]",–
–,1.15e-09,8.99,"COc1ccc(-c2nc3c4cccc(C(F)(F)F)c4nc(N[C@@H]4CCCCNC4=O)n3n2)cc1 [Example 204, (3R)-3-{[2-(4-methoxyphenyl)-7-(trifluoromethyl)[1,2,4]triazolo[1,5-c]quinazolin-5-yl]amino}azepan-2-one]",–
–,> 2e-05,5.21,"O=C1NCCNCC1Nc1nc2cccc(C3CC3)c2c2nc(-c3cccc(F)c3)nn12 (single isomer, unassigned) [Example 300, 6-{[10-cyclopropyl-2-(3-fluorophenyl)[1,2,4]triazolo[1,5-c]quinazolin-5-yl]amino}-1,4-diazepan-5-one]",–
–,1.64e-08,8.00,"O=C1NCCCC[C@H]1Nc1nc2ccccc2c2nc(-c3ccncc3F)nn12 [Example 369, (3R)-3-{[2-(3-fluoropyridin-4-yl)[1,2,4]triazolo[1,5-c]quinazolin-5-yl]amino}azepan-2-one]",–
–,7.64e-09,7.82,"O=C1NCCCC[C@H]1Nc1nc2c(C(F)(F)F)cccc2c2nc(-c3cc[nH]n3)nn12 [Example 737, (3R)-3-{[2-(1H-pyrazol-3-yl)-7-(trifluoromethyl)[1,2,4]triazolo[1,5-c]quinazolin-5-yl]amino}azepan-2-one]",–
–,–,5.65,"O=C1NCCNCC1Nc1nc2cccc(C3CC3)c2c2nc(-c3cccc(F)c3)nn12 (single isomer, unassigned) [Example 301, 6-{[10-cyclopropyl-2-(3-fluorophenyl)[1,2,4]triazolo[1,5-c]quinazolin-5-yl]amino}-1,4-diazepan-5-one]",pIC50 (AHR [1]; read-out: AHR Antagonism Human IC50): < 4.70
